In PubChem BioAssay (NCI):
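Briefly, cells in 96-well plates were exposed to five compound concentrations for 48 h, and endpoints were estimated by linear interpolation. At the TGI there is no net growth.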

Key:
Experiment in all cases: growth of human tumour cells (NCI), 48 h
M19-MEL melanoma = system: M19-MEL melanoma
KM12 colon = system: KM12 colon
A549 NSCLC = system: A549 NSCLC
RPMI-8226 leukemia = system: RPMI-8226 leukemia
OVCAR-5 ovarian = system: OVCAR-5 ovarian
IGROV1 ovarian = system: IGROV1 ovarian
HCC-2998 colon = system: HCC-2998 colon
OVCAR-8 ovarian = system: OVCAR-8 ovarian
SK-MEL-28 melanoma = system: SK-MEL-28 melanoma
XF 498 CNS = system: XF 498 CNS
DMS 273 small cell lung = system: DMS 273 small cell lung
SNB-75 CNS = system: SNB-75 CNS
KM20L2 colon = system: KM20L2 colon
NCI-H460 lung = system: NCI-H460 lung
OVCAR-3 ovarian = system: OVCAR-3 ovarian
UO-31 renal = system: UO-31 renal
UACC-257 melanoma = system: UACC-257 melanoma
HCT-116 colon = system: HCT-116 colon
SN12C renal = system: SN12C renal
CAKI-1 renal = system: CAKI-1 renal
TK-10 renal = system: TK-10 renal
786-0 renal = system: 786-0 renal
CCRF-CEM leukemia = system: CCRF-CEM leukemia
SF-295 CNS = system: SF-295 CNS
SR leukemia = system: SR leukemia
HCT-15 colon = system: HCT-15 colon
UACC-62 melanoma = system: UACC-62 melanoma
SF-539 CNS = system: SF-539 CNS
EKVX NSCLC = system: EKVX NSCLC
SK-MEL-2 melanoma = system: SK-MEL-2 melanoma
SK-MEL-5 melanoma = system: SK-MEL-5 melanoma
SF-268 CNS = system: SF-268 CNS
M14 melanoma = system: M14 melanoma
DLD-1 colon = system: DLD-1 colon
SW-620 colon = system: SW-620 colon
NCI-H23 lung = system: NCI-H23 lung
HT29 colon = system: HT29 colon
NCI-H226 lung = system: NCI-H226 lung
HOP-62 NSCLC = system: HOP-62 NSCLC
HOP-92 NSCLC = system: HOP-92 NSCLC
LOX IMVI melanoma = system: LOX IMVI melanoma
OVCAR-4 ovarian = system: OVCAR-4 ovarian
DMS 114 small cell lung = system: DMS 114 small cell lung
ACHN renal = system: ACHN renal
HOP-18 NSCLC = system: HOP-18 NSCLC
SNB-19 CNS = system: SNB-19 CNS
A498 renal = system: A498 renal
HL-60(TB) leukemia = system: HL-60(TB) leukemia
K-562 leukemia = system: K-562 leukemia
SNB-78 CNS = system: SNB-78 CNS
LXFL 529 NSCLC = system: LXFL 529 NSCLC
MOLT-4 leukemia = system: MOLT-4 leukemia
MALME-3M melanoma = system: MALME-3M melanoma
RXF 393 renal = system: RXF 393 renal
COLO 205 colon = system: COLO 205 colon
SK-OV-3 ovarian = system: SK-OV-3 ovarian
NCI-H522 lung = system: NCI-H522 lung

C/C(CCn1[nH]c(=O)ccc1=O)=N\N=C(N)N
TGI (M19-MEL melanoma): > 100 µM | TGI (KM12 colon): > 100 µM | TGI (A549 NSCLC): > 100 µM | TGI (RPMI-8226 leukemia): > 100 µM | TGI (OVCAR-5 ovarian): > 100 µM | TGI (IGROV1 ovarian): > 100 µM | TGI (HCC-2998 colon): > 100 µM | TGI (OVCAR-8 ovarian): > 100 µM | TGI (SK-MEL-28 melanoma): > 100 µM | TGI (XF 498 CNS): > 100 µM | TGI (DMS 273 small cell lung): > 100 µM | TGI (SNB-75 CNS): > 100 µM | TGI (KM20L2 colon): > 100 µM | TGI (NCI-H460 lung): > 100 µM | TGI (OVCAR-3 ovarian): > 100 µM | TGI (UO-31 renal): > 100 µM | TGI (UACC-257 melanoma): > 100 µM | TGI (HCT-116 colon): > 100 µM | TGI (SN12C renal): > 100 µM | TGI (CAKI-1 renal): > 100 µM | TGI (TK-10 renal): > 100 µM | TGI (786-0 renal): > 100 µM | TGI (CCRF-CEM leukemia): > 100 µM | TGI (SF-295 CNS): > 100 µM | TGI (SR leukemia): > 100 µM | TGI (HCT-15 colon): > 100 µM | TGI (UACC-62 melanoma): > 100 µM | TGI (SF-539 CNS): > 100 µM | TGI (EKVX NSCLC): > 100 µM | TGI (SK-MEL-2 melanoma): > 100 µM | TGI (SK-MEL-5 melanoma): > 100 µM | TGI (SF-268 CNS): > 100 µM | TGI (M14 melanoma): > 100 µM | TGI (DLD-1 colon): > 100 µM | TGI (SW-620 colon): > 100 µM | TGI (NCI-H23 lung): > 100 µM | TGI (HT29 colon): > 100 µM | TGI (NCI-H226 lung): > 100 µM | TGI (HOP-62 NSCLC): > 100 µM | TGI (HOP-92 NSCLC): > 100 µM | TGI (LOX IMVI melanoma): > 100 µM | TGI (OVCAR-4 ovarian): > 100 µM | TGI (DMS 114 small cell lung): > 100 µM | TGI (ACHN renal): > 100 µM | TGI (HOP-18 NSCLC): > 100 µM | TGI (SNB-19 CNS): > 100 µM | TGI (A498 renal): > 100 µM | TGI (HL-60(TB) leukemia): > 100 µM | TGI (K-562 leukemia): > 100 µM | TGI (SNB-78 CNS): > 100 µM | TGI (LXFL 529 NSCLC): > 100 µM | TGI (MOLT-4 leukemia): > 100 µM | TGI (MALME-3M melanoma): > 100 µM | TGI (RXF 393 renal): > 100 µM

CN(C)CC1CCC(=C2CCCC2)C1=O (stereo unspecified)
TGI (M19-MEL melanoma): 32.9 µM | TGI (KM12 colon): 25.6 µM | TGI (A549 NSCLC): 39.8 µM | TGI (RPMI-8226 leukemia): 4.81 µM | TGI (OVCAR-5 ovarian): 30.9 µM | TGI (IGROV1 ovarian): 34.4 µM | TGI (HCC-2998 colon): 32.5 µM | TGI (OVCAR-8 ovarian): 39.1 µM | TGI (SK-MEL-28 melanoma): 27.4 µM | TGI (XF 498 CNS): 12.4 µM | TGI (COLO 205 colon): 33.4 µM | TGI (DMS 273 small cell lung): 34.8 µM | TGI (SNB-75 CNS): 30.7 µM | TGI (KM20L2 colon): 36.3 µM | TGI (NCI-H460 lung): 45.8 µM | TGI (OVCAR-3 ovarian): 26.3 µM | TGI (UO-31 renal): 32.3 µM | TGI (UACC-257 melanoma): 31.8 µM | TGI (SK-OV-3 ovarian): > 100 µM | TGI (HCT-116 colon): 29.3 µM | TGI (SN12C renal): 24.9 µM | TGI (CAKI-1 renal): > 100 µM | TGI (TK-10 renal): 25.2 µM | TGI (786-0 renal): 19.7 µM | TGI (CCRF-CEM leukemia): 9.54 µM | TGI (SF-295 CNS): > 100 µM | TGI (NCI-H522 lung): 3.39 µM | TGI (SR leukemia): 21.1 µM | TGI (HCT-15 colon): 15.9 µM | TGI (UACC-62 melanoma): 31.4 µM | TGI (SF-539 CNS): 40 µM | TGI (EKVX NSCLC): 34.7 µM | TGI (SK-MEL-2 melanoma): 33.5 µM | TGI (SK-MEL-5 melanoma): 32 µM | TGI (SF-268 CNS): 26.4 µM | TGI (M14 melanoma): 23.3 µM | TGI (DLD-1 colon): 7.02 µM | TGI (SW-620 colon): > 20.9 µM | TGI (NCI-H23 lung): 36.3 µM | TGI (HT29 colon): 32.6 µM | TGI (NCI-H226 lung): 32.2 µM | TGI (HOP-62 NSCLC): 19.1 µM | TGI (HOP-92 NSCLC): 20.1 µM | TGI (LOX IMVI melanoma): 31.8 µM | TGI (OVCAR-4 ovarian): 31 µM | TGI (DMS 114 small cell lung): 25 µM | TGI (ACHN renal): 21.4 µM | TGI (HOP-18 NSCLC): 31.2 µM | TGI (SNB-19 CNS): > 100 µM | TGI (A498 renal): 35.4 µM | TGI (HL-60(TB) leukemia): 15.4 µM | TGI (K-562 leukemia): 8.76 µM | TGI (SNB-78 CNS): 34.4 µM | TGI (LXFL 529 NSCLC): 12.6 µM | TGI (MOLT-4 leukemia): > 20.7 µM | TGI (MALME-3M melanoma): 11 µM | TGI (RXF 393 renal): 27.9 µM
